According to ChEMBL document CHEMBL1201862, “PubChem BioAssay data set” (2004):
Calls of active or inactive are those of the source.

Key:
Chaperone protein dnaK = Chaperone protein dnaK (Escherichia coli, UniProt C3TRK2); test: E. coli DnaK binders, calorimetric Kd – biophysical, isothermal titration calorimetry, beta-domain, full-length DnaK, orthogonal assay for DnaK modulator project, SAR follow-up (AID 1495)
[1] = Luminescence Cell-Based Dose Confirmation HTS to Identify Inhibitors of Platelet Dense Granule Release. [Related pubchem assays: 1663 (Primary HTS), 1678 (Summary of Project)]; type: functional
[2] = ADP-Glo luciferase signal interference – biochemical, luminescence, cherry-picked samples, set 2, artefact control for CDK5 inhibitor project, dose response (AID 504546); type: functional, cell-based
[3] = biological target: C-C chemokine receptor type 6 (Homo sapiens, UniProt P51684); test: antagonism of CCR6 beta-arrestin recruitment – cell-based, luminescent beta-arrestin readout, dose response (AID 504728); type: functional
Beta-galactosidase [4] = biological target: T1, Beta-galactosidase (Escherichia coli, UniProt Q8VNN2); test: detection-enzyme interference by beta-gal modulators – biochemical, E. coli enzyme, set 3, artefact control for CCR6 antagonist project, dose response (AID 504712); type: functional
T1 sequence (Q8VNN2 whole entry): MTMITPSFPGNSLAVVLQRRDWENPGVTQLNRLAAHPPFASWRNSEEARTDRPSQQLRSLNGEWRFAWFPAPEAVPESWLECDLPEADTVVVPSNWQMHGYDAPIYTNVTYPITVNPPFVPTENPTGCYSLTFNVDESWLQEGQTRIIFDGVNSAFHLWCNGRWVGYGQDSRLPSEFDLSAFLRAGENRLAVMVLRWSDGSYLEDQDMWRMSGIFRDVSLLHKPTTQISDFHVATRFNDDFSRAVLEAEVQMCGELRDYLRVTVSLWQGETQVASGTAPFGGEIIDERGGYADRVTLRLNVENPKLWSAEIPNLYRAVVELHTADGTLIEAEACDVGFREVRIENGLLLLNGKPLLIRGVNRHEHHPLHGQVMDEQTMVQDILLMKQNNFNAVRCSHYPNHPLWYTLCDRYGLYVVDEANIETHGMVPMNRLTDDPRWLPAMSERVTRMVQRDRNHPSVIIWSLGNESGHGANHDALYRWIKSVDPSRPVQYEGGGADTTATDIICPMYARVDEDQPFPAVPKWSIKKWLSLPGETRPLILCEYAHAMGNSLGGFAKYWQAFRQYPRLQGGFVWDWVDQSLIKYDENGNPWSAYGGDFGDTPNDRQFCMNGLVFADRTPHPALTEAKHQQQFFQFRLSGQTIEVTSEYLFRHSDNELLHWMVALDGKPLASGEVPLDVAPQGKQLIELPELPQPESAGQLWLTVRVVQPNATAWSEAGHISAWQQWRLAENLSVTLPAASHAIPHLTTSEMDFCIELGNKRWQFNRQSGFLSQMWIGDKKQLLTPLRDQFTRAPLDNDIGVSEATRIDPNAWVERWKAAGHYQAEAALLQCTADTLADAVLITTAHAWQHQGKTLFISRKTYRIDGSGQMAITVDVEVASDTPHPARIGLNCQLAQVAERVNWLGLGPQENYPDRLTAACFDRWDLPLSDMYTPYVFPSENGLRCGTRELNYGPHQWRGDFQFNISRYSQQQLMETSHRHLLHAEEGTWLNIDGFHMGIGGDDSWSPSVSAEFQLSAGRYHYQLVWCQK

[5] = reduction of Shn3 3'UTR-driven luciferase in osteoblasts – cell-based, Clone20 osteoblasts, firefly luciferase, cherry-picked, dose response (AID 624132); type: functional;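 note: firefly luciferase luminescence from reporter carrying the Shn3 3'UTR in osteoblasts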
[6] = loss of viability in HepG2 cells – cell-based, CellTiter-Glo, cherry-picked, cytotoxicity control for Shn3 inhibitor project, dose response (AID 624134); type: functional
[7] = non-specific 3'UTR reporter inhibition in Clone20-Shn3RL – cell-based, Renilla luciferase, cherry-picked, counter-screen for Shn3 inhibitor project, dose response (AID 624133); type: functional
[8] = biological target: Lysosomal acid glucosylceramidase (Homo sapiens, UniProt P04062); test: Dose response cell-based high throughput screening assay to identify enhancers of beta-glucosidase activity. [Related pubchem assays: 784 ]; type: functional
[9] = biological target: T2, G2/mitotic-specific cyclin-B1 (Homo sapiens, UniProt P14635); test: Counterscreen assay for inhibitors of Wee1 degradation: dose response cell-based assay to identify inhibitors of cyclin B degradation. [Related pubchem assays: 1410, 1321 ]; type: functional
T2 sequence (P14635 whole entry): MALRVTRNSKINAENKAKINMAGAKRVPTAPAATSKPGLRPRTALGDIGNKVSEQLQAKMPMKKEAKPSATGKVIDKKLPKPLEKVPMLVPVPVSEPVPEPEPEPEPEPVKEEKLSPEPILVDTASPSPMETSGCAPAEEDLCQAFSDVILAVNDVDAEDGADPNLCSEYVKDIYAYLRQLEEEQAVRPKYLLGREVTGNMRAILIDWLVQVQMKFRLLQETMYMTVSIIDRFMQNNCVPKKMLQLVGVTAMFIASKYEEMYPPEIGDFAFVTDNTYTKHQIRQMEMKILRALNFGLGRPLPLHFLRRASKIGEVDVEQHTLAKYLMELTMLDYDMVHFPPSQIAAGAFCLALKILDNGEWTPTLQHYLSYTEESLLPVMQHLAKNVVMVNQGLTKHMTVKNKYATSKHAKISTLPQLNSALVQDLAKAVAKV

[10] = biological target: Sphingosine 1-phosphate receptor 2 (Homo sapiens, UniProt O95136); test: Dose Response Cell Based Assay for Antagonists of the S1P2 Receptor. [Related pubchem assays: 856, 736 ]; type: functional
HeLa = test: Cytotoxicity counterscreen assay for transcriptional activators of heat shock protein 70 (Hsp70). [Related pubchem assays: 1203, 1252 ]; type: functional; settings: Homo sapiens
Wee1-like protein kinase [11] = biological target: T3, Wee1-like protein kinase (Homo sapiens, UniProt P30291); test: Dose Response Cell-based Assay for Inhibitors of Wee1 Degradation. [Related pubchem assays: 1410, 1321 ]; type: functional
T3 sequence (P30291 whole entry): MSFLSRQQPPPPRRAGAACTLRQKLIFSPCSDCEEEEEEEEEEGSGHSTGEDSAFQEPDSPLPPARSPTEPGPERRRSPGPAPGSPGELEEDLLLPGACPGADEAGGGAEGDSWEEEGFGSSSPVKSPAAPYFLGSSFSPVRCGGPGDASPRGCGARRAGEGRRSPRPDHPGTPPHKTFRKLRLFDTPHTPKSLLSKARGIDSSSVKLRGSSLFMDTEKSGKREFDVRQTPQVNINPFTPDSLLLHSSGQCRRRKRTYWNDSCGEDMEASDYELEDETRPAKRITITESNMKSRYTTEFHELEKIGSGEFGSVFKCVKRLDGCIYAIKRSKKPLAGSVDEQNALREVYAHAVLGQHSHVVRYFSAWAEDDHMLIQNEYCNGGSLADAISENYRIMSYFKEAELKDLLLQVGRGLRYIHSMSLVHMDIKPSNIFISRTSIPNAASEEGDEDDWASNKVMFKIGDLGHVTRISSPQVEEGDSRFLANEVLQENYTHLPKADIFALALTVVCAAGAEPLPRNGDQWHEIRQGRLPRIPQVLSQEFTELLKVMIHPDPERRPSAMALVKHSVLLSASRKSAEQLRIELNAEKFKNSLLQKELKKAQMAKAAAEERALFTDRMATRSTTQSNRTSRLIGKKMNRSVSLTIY

Beta-galactosidase [12] = biological target: T1, Beta-galactosidase; test: PubChem AID 485352; type: functional
[13] = biological target: T4, Heat shock factor protein 1 (Mus musculus, UniProt P38532); test: decrease of HSF1-responsive luciferase luminescence – cell-based, NIH3T3, dose retest, confirmation (AID 2382); type: functional;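 note: NIH3T3 fibroblasts with HSF1-driven luciferase reporter stressed by proteasome inhibitor MG132; luminescence from HSF1-driven luciferase expression after 8 hours of MG132 stress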
T4 sequence (P38532 whole entry): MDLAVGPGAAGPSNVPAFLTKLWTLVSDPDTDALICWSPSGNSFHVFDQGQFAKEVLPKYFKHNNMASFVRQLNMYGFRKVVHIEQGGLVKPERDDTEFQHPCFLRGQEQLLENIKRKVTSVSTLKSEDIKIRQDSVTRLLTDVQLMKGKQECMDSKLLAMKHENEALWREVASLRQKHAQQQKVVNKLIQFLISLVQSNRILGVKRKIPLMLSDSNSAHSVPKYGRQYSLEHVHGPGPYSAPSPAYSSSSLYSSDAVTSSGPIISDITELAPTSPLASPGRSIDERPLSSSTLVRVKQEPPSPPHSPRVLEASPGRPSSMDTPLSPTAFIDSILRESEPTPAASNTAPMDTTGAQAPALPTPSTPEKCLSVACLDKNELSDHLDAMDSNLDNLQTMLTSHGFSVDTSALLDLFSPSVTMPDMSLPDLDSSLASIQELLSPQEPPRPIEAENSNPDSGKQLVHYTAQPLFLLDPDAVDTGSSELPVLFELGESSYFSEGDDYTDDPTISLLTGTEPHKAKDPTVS

[14] = microbe, parasite or virus in culture; type: functional; settings: Mycobacterium tuberculosis
[15] = biological target: T5, Type-1 angiotensin II receptor (Homo sapiens, UniProt P30556); test: antagonism of angiotensin II type 1 receptor – cell-based, uHTS hits, selectivity assay for APJ receptor antagonist project, dose response (AID 463214); type: functional;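 note: antagonist potency against angiotensin II stimulated AT1 response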
T5 sequence (P30556 whole entry): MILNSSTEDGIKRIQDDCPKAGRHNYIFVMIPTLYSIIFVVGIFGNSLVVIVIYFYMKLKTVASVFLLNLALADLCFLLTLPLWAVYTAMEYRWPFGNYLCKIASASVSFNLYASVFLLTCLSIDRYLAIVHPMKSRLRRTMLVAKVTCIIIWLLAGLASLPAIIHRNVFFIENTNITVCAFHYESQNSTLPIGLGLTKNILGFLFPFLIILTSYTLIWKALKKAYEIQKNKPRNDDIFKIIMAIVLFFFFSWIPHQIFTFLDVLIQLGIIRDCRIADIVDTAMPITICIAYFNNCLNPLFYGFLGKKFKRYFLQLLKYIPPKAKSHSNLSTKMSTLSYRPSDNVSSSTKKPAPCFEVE

[16] = biological target: Sphingosine 1-phosphate receptor 4 (Homo sapiens, UniProt O95977); test: Fluorescence dose response cell-based high throughput screening assay for antagonists of the Sphingosine 1-Phosphate Receptor 4 (S1P4). [Related pubchem assays: 1524 (Confirmation in triplicates.), 1510 (Primary screen.)]; type: functional
[17] = biological target: Sphingosine 1-phosphate receptor 1 (Homo sapiens, UniProt P21453); type: functional;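 note: Tango beta-arrestin reporter U2OS cells stimulated with S1P near its EC80; inhibitor potency meaning antagonism of receptor activation by the natural agonist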
[18] = HEK-293T viability loss after treatment – luminescence, T-cell screen hits, cytotoxicity control for TCR NF-kB inhibitor project, dose response (AID 489026); type: functional, cell-based;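 note: cells exposed to compound about 14 hours before the viability readout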
INS1 = test: INS-1E survival protection against cytokine death – cell-based, luminescence, retest, dose response (AID 449756); type: functional; settings: Rattus norvegicus;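 note: cell death triggered by IL-1 beta plus TNF-alpha plus IFN-gamma mixture; protective hits raise ATP signal compared with cytokine alone wells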
[19] = biological target: Voltage-gated N-type calcium channel alpha-1B subunit/Amyloid beta A4 precursor protein-binding family A member 1 (Homo sapiens, UniProt Q00975+Q02410); test: disruptors of Mint-PDZ/N-type channel peptide interaction – biochemical, HTRF, set 2, SAR follow-up (AID 434980); type: functional
[20] = biological target: Melanin-concentrating hormone receptor 1 (Homo sapiens, UniProt Q99705); test: Fluorescence-based counterscreen for antagonists of the G-protein coupled receptor 7 (GPR7): cell-based high throughput dose response assay to identify antagonists of the melanin-concentrating hormone receptor 1 (MCHR1).; type: functional
Melanin-concentrating hormone receptor 1, sequence (Q99705 whole entry): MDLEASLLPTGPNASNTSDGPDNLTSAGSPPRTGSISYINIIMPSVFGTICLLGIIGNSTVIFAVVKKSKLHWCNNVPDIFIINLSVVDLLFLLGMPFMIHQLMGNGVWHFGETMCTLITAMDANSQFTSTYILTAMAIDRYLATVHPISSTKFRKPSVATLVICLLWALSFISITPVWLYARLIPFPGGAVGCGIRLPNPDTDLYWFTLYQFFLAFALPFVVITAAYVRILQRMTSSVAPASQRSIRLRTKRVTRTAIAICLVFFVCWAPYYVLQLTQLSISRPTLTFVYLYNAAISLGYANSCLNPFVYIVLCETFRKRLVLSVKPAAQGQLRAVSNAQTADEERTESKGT

Aspartyl aminopeptidase = Aspartyl aminopeptidase (Plasmodium falciparum 3D7, UniProt Q8I2J3)
Procathepsin L = Procathepsin L (Homo sapiens, UniProt P07711)
[21] = biological target: T6, Induced myeloid leukemia cell differentiation protein Mcl-1 (Homo sapiens, UniProt Q07820); test: blockers of MCL1 binding to BIM peptide – biochemical, fluorescence polarization, BIM-BH3 peptide, 1536-well, dose response (AID 2217)
T6 sequence (Q07820 whole entry): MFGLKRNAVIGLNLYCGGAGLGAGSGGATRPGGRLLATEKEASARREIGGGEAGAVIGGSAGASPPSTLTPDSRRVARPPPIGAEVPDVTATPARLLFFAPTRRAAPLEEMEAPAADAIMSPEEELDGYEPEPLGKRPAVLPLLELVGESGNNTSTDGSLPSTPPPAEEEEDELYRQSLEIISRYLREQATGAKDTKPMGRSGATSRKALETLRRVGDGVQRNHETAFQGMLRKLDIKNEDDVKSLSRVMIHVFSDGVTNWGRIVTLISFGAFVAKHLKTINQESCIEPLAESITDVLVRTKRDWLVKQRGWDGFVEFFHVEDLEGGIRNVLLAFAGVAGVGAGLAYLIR

Bcl-2-like protein 1 = Bcl-2-like protein 1 (Homo sapiens, UniProt Q07817); test: blockers of BCLXL peptide binding – biochemical, fluorescence polarization, 1536-well, selectivity assay for MCL1 inhibitor project, dose response (AID 2218)
Bcl-2-like protein 1, sequence (Q07817 whole entry): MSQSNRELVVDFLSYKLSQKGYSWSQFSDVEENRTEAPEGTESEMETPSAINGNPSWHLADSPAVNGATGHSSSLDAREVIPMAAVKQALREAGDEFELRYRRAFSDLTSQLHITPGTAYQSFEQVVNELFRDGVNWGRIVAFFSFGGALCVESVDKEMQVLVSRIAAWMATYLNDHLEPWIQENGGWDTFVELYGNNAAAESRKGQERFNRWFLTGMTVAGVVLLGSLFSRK

Cytochrome P450 2C19 = Cytochrome P450 2C19 (Homo sapiens, UniProt P33261); test: qHTS Assay for Inhibitors and Substrates of Cytochrome P450 2C19. [Related pubchem assays: 410 ]; type: ADME; settings: read-out: Potency
Cytochrome P450 2C19, sequence (P33261 whole entry): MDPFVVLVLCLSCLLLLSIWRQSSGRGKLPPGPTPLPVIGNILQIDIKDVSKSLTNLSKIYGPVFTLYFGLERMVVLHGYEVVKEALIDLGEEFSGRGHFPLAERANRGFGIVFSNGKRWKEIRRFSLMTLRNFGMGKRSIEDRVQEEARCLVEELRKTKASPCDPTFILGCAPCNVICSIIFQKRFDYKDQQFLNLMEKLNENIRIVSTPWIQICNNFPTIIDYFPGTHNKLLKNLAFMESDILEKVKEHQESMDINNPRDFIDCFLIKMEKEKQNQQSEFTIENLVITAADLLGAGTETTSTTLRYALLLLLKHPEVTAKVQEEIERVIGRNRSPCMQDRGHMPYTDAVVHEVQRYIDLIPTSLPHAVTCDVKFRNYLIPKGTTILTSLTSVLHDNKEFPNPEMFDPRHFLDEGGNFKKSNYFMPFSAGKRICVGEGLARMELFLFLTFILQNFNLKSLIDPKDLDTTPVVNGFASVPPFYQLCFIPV

Cytochrome P450 2D6 = Cytochrome P450 2D6 (Homo sapiens, UniProt P10635); test: qHTS Assay for Inhibitors and Substrates of Cytochrome P450 2D6. [Related pubchem assays: 410 ]; type: ADME; settings: read-out: Potency
Cytochrome P450 2D6, sequence (P10635 whole entry): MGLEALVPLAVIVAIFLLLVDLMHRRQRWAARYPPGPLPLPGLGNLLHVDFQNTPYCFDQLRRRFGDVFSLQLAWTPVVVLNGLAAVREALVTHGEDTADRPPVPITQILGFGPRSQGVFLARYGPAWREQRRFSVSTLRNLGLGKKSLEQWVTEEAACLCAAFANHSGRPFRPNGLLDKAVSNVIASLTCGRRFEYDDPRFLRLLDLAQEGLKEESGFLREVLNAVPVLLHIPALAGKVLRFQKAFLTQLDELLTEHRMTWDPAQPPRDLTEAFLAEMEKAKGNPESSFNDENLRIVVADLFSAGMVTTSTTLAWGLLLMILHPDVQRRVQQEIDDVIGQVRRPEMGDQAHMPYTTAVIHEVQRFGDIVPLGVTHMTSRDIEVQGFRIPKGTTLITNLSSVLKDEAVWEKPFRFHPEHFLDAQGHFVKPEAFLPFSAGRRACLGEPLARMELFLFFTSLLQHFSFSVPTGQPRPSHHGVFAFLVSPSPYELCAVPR

Cytochrome P450 2C9 = Cytochrome P450 2C9 (Homo sapiens, UniProt P11712); settings: Potency
[22] = biological target: Dual specificity protein phosphatase 3 (Homo sapiens, UniProt P51452); test: inhibition constants for human DUSP3 – biochemical, colorimetric, SAR follow-up (AID 2004)
Dual specificity protein phosphatase 3, sequence (P51452 whole entry): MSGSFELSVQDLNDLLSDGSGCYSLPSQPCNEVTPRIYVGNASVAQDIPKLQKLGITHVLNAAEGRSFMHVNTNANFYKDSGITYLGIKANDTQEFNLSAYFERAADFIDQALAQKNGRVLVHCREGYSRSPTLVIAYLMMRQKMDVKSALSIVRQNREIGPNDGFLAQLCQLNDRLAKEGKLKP

Leucine aminopeptidase = biological target: T7, Leucine aminopeptidase (Plasmodium falciparum 3D7, UniProt Q8IL11); test: P. falciparum M17LAP inhibitors, primary screen, biochemical, fluorogenic H-Leu-NHMec substrate, 1536-well (AID 1619); type: functional
T7 sequence (Q8IL11 whole entry): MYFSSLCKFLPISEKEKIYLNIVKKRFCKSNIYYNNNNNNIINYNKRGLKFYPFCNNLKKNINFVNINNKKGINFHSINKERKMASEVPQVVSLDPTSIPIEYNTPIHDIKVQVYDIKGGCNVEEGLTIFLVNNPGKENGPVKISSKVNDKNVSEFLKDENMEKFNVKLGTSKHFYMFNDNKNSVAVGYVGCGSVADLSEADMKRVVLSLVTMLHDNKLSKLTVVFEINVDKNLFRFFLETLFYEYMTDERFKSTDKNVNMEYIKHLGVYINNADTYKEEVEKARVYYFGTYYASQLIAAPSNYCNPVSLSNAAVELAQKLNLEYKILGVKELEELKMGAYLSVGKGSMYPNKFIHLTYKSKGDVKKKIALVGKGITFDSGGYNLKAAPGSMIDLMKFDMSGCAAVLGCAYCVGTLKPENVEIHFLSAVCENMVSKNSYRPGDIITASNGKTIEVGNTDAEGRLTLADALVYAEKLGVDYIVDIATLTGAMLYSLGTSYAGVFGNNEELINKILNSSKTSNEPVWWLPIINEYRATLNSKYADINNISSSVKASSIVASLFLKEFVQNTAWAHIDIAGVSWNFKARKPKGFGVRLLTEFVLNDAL

[23] = biological target: T6, Induced myeloid leukemia cell differentiation protein Mcl-1; type: functional
[24] = biological target: T8, Scavenger receptor class B member 1 (Mus musculus, UniProt Q61009); test: mouse SR-BI DiI-HDL uptake blockers – ldlA[mSR-BI] cells, fluorescence, cherry pick, dose response (AID 493194); type: functional, cell-based;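 note: cellular uptake of fluorescent DiI-labeled HDL measured as cell fluorescence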
T8 sequence (Q61009 whole entry): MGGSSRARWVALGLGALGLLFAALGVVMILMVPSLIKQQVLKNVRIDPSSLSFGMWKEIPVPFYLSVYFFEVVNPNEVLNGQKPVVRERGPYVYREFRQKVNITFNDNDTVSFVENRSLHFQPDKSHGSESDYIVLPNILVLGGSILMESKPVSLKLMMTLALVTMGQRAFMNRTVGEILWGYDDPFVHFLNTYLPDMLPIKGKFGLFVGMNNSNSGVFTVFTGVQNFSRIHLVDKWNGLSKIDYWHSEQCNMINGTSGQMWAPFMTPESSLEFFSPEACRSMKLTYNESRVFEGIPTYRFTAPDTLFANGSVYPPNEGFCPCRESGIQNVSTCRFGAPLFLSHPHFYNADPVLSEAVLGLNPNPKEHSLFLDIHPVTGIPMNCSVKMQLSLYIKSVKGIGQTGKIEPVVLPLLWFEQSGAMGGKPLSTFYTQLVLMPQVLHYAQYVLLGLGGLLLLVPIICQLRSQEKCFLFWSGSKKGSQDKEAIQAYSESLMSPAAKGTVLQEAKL

Wee1-like protein kinase [25] = biological target: T3, Wee1-like protein kinase; test: HeLa cell cycle G2/M accumulation – FACS, mechanism study for Wee1 degradation inhibitor project, late-stage follow-up, panel member Wee1 Degradation (AID 2088)
[26] = biological target: T2, G2/mitotic-specific cyclin-B1; test: HeLa cell cycle G2/M accumulation – FACS, mechanism study for Wee1 degradation inhibitor project, late-stage follow-up, panel member Cyclin B Degradation (AID 2088)

Chaperone protein dnaK, sequence (C3TRK2 whole entry): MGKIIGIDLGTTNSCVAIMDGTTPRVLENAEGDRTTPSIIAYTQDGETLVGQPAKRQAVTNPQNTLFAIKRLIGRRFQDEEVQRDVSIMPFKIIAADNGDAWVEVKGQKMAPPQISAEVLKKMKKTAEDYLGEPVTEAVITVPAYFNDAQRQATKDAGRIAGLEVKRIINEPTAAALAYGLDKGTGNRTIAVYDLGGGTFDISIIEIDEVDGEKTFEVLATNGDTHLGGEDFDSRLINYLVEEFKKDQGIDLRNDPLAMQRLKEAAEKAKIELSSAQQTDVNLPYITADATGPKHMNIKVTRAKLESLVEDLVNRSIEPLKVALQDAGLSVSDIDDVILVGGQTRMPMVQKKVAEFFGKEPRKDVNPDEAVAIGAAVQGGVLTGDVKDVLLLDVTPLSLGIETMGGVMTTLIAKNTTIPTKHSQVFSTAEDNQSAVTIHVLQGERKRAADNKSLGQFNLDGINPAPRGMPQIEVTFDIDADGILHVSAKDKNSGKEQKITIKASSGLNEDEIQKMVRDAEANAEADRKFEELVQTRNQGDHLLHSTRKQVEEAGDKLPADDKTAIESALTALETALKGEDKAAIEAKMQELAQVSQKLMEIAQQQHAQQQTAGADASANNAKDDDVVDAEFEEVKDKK

SMILES: O=C(NCc1cccc2ccccc12)c1cccs1
- Kd (Chaperone protein dnaK): 1.7 µM (active)

SMILES: COc1ccc(C(=O)O/N=C(\N)c2ccccc2)cc1
- EC50 [1]: 0.921 µM (active)
- AC50 [2]: 37.7 µM (active)

SMILES: O=C1C(Br)=C(c2ccccc2)C(c2ccccc2)=C1c1ccccc1
- IC50 [3]: > 66.6 µM (inactive)
- IC50 (Beta-galactosidase [4]): > 66.6 µM (inactive)
- AC50 [5]: 0.46 µM (active)
- AC50 [6]: 38.8 µM (active)
- AC50 [7]: 4.75 µM (active)

SMILES: O=C(O)c1ccc2c(c1)C(c1ccccc1)OC2=O (stereo unspecified)
- EC50 [8]: > 10 µM (not active)

SMILES: CCCCS(=O)(=O)/C=C\C=C/S(=O)(=O)CCCC
- EC50 [9]: > 5.53 µM (active)
- IC50 [10]: 4.5 µM (active)
- CC50 (HeLa): 9.43 µM (active)
- EC50 (Wee1-like protein kinase [11]): > 49.7 µM (not active)
- EC50 (Beta-galactosidase [12]): > 40 µM (inactive)
- EC50 [13]: 3.04 µM (active)
- CC50 [14]: 3.13 µM (active)
- IC50 [15]: 3.67 µM (active)
- IC50 [16]: 1.28 µM (active)
- IC50 [17]: 13.7 µM (not active)
- IC50 [18]: 52.6 µM (inactive)
- AC50 (INS1): 3.25 µM (active)

SMILES: O=C(c1cc(-c2ccco2)nc2ccccc12)N1CCC(c2ccccc2)CC1
- IC50 [19]: > 56.8 µM (inactive)

SMILES: CCN1CCN(C(=O)c2ccc3c(c2)N(Cc2ccc(C)cc2)CCS3)CC1
- IC50 [20]: > 14.6 µM (not active)

SMILES: CC(C)n1c(SCC(=O)Nc2nncs2)nnc1-c1ccco1
- IC50 (Aspartyl aminopeptidase): 4.68 µM (active)
- IC50 (Procathepsin L): > 59.6 µM (not active)
- IC50 [21]: 18.1 µM (not active)
- IC50 (Bcl-2-like protein 1): > 109 µM (not active)

SMILES: CCCCCCC#Cc1cc(OC)c(OC)cc1C(N1CC(C)c2ccccc21)N1CC(C)c2ccccc21 (stereo unspecified)
- AC50 (Cytochrome P450 2C19): 3.98 µM (inconclusive)
- AC50 (Cytochrome P450 2D6): 7.94 µM (inconclusive)
- AC50 (Cytochrome P450 2C9): 3.16 µM (inconclusive)

SMILES: NC(=O)c1c(N)sc2c1CCCCCCCCCC2
- Ki [22]: 39.8 µM (inactive)

SMILES: CC1CCc2c(sc(Nc3nc4c(F)cccc4s3)c2C(N)=O)C1 (stereo unspecified)
- IC50 (Leucine aminopeptidase): 18 µM (active)
- IC50 [23]: 3.83 µM (active)
- AC50 [24]: 10.9 µM (active)

SMILES: Cc1cc(O)nc(-n2nc(C)cc2NC(=O)/C=C/c2ccccc2)n1
- EC50 (Wee1-like protein kinase [25]): > 16.6 µM (active)
- EC50 [26]: > 49.7 µM (inactive)
